Experimental data: patent publication US11919874B2, “Bisphenol derivatives and their use as androgen receptor activity modulators” (The University of British Columbia, priority 2016, dated 2024)

Key:
[1] = molecular target: T1, androgen receptor (Homo sapiens, UniProt P10275, T878A); assay: PSA (6.1 kb)-luciferase reporter assay in LNCaP cells induced with R1881; assay type: cell-based; details: R1881 1 nM, 48 h, mean with standard error
T1 construct: endogenous in cells; host or cells: LNCaP
T1 sequence (P10275 1-920 T878A): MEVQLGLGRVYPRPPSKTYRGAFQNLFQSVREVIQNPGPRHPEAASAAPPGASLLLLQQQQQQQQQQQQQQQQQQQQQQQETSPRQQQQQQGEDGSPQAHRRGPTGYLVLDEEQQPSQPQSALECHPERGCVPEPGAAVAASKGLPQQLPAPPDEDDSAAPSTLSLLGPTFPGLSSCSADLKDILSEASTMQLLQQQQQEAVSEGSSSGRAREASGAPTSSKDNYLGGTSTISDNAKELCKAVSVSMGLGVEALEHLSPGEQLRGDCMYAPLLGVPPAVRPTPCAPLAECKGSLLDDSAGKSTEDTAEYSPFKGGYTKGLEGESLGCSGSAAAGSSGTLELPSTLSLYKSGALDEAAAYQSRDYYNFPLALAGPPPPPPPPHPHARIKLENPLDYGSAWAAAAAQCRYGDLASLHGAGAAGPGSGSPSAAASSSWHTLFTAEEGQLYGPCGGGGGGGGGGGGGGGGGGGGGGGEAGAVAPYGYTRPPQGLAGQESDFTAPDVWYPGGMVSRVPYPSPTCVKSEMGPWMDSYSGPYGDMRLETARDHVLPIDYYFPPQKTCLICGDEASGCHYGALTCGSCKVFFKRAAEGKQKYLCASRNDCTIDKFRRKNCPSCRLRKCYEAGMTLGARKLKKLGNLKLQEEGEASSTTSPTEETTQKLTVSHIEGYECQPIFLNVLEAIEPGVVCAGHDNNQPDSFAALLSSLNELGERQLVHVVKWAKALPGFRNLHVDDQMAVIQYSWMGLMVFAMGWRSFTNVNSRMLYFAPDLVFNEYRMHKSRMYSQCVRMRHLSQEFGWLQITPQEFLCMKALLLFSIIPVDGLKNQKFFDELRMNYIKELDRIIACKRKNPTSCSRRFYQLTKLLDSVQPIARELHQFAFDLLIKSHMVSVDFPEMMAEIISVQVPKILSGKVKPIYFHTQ
Experimental: LNCaP cells (3×10^4) were seeded into 24-well plates overnight. […] Luciferase activities were measured and normalized to protein concentration determined by the Bradford assay. IC50 calculations were done using OriginPro 8.1 Software (Northampton, MA, USA). Transfection experiments to determine IC50 values were performed in at least 4 independent experiments (“trials”) using triplicate wells.

[2] = system: LNCaP xenografts; assay: LNCaP xenograft model in castrated NOD-SCID mice, tumor volume; assay type: in vivo
Experimental: LNCaP Cell Preparation: LNCaP cells were passaged prior to seeding in T175flasks at a concentration of ˜2-3×10^7/mL. The cells were grown for 7 days until 90% confluent. Cell preparations were then prepared in RPMI with 5% FBS/Matrigel (50/50, v/v) yielding a final concentration of 1×10^8/mL.
Tumor Induction and Treatment: Six to eight week old NOD-SCID mice were received from BC Cancer Research Centre's Animal Resource Centre and acclimated for 28 days. Tumors were initiated with […]. Tumors were allowed to grow to an average size of approximately 100 mm^3. Mice were then castrated and the tumors allowed to adapt for a period of one week before first dose was administered. Tumor volume was measured as length×width×height in mm multiplied by 0.5236.
Compound Preparation and Treatment: Compound 1a was dissolved in 100% DMSO (ATCC Lot 61908420) to yield a stock solution of 157 mg/mL. Compound 1a was administered as an oral gavage once per day at dose levels of 10 and 30 mg/kg. Vehicle control animals were administered 1% CMC formulation as an oral gavage once daily. […]
Oral treatment was initiated one week after castration. […] Two days after the last dose, the tumours were measured and harvested. Body weight was assessed daily throughout the treatment period. Tumor volume was measured on day −7 (castration day), and again on days 1, 4, 8, 12, 16, 20, 24 and 26.

[3] = Body weight in LNCaP xenograft model; assay type: in vivo, mice; details: daily oral 10 or 30 mg/kg, start vs day 26, vs CMC control
Experimental: Compound Preparation and Treatment: Compound 1a was dissolved in 100% DMSO (ATCC Lot 61908420) to yield a stock solution of 157 mg/mL. Compound 1a was administered as an oral gavage once per day at dose levels of 10 and 30 mg/kg. Vehicle control animals were administered 1% CMC formulation as an oral gavage once daily. CMC (n=17 tumours); 10 mg/kg (n=15 tumours); 30 mg/kg (n=14 tumours). CMC (n=9 animals); 10 mg/kg (n=9 animals); 30 mg/kg (n=9 animals).
Oral treatment was initiated one week after castration. The start of treatment was designated “Day 1” and animals were treated once daily for a total of 24 doses. Two days after the last dose, the tumours were measured and harvested. Body weight was assessed daily throughout the treatment period. Tumor volume was measured on day −7 (castration day), and again on days 1, 4, 8, 12, 16, 20, 24 and 26.

[4] = system: PSA mRNA; assay: PSA mRNA in LNCaP xenografts by QPCR; assay type: in vivo, mice
Description: Quantitative Real-Time Polymerase Chain Reaction (QPCR) Method: LNCaP xenografts were homogenized using TRIzol® reagent (Invitrogen™), and total RNA was extracted using PureLink RNA Mini Kit (Life Technologies). Amplification Grade DNase I treatment (Sigma-Aldrich) was applied to the RNA before RT-PCR using High Capacity RNA-to-DNA kit (Life Technologies) to generate cDNA. cDNA and gene-specific primers were combined with Platinum® SYBR® Green qPCRSuperMix-UDG with ROX (Invitrogen™). Transcripts were measured by quantitative real-time PCR (QPCR) using ABI PRISM 7900 Sequence Detection System (ABI PRISM®, Applied Biosystems by Life Technologies) in triplicates for each biological sample. Gene expression levels were normalized to housekeeping gene RPL13A. Primers for PSA have been previously described (Andersen R. J., et al. Cancer Cell. 2010; Myung J. K., et al. J. Clin. Invest. 2013).
In FIG. 6, bars represent mean±SEM with n=5 representative tumors from each treatment group. One-way ANOVA post-hoc Tukey's multiple comparisons test was performed for statistical analysis. *p<0.05; **p<0.01; ***p<0.001.

| Structure (SMILES) | IC50 [1] [µM] | other results |
| --- | --- | --- |
| CC(=O)OC[C@H](COc1ccc(C(C)(C)c2ccc(OC[C@@H](CCl)OC(C)=O)cc2)cc1)OC(C)=O [B, reference compound] | 10.7 ± 1.04 | – |
| CC(C)(c1ccc(OC[C@H](O)CO)cc1)c1ccc(OC[C@H](O)CCl)c(Cl)c1 [C, reference compound] | 2.47 ± 0.26 | – |
| CC(C)(c1ccc(OC[C@H](O)CO)cc1)c1cc(Cl)c(OC[C@H](O)CCl)c(Cl)c1 [Compound 1a, (R)-3-(4-(2-(3,5-dichloro-4-((S)-3-chloro-2-hydroxypropoxy)phenyl)propan-2-yl)phenoxy)propane-1,2-diol] | 1.41 ± 0.27 | tumor growth / tumor volume at the end of the treatment period ([2]; daily oral 10 mg/kg or 30 mg/kg, castrated NOD-SCID mice, day 26, vs CMC control): inhibition of tumor growth and significant reduction of tumor volume; difference in tumor volumes between the 10 mg/kg and 30 mg/kg doses ([2]; daily oral, 10 mg/kg vs 30 mg/kg): no statistical difference in the tumor volumes; start and finish body weights [3]: no significant differences between the start and finish body weights; mRNA expression of PSA in tumors ([4]; 30 mg/kg oral daily, compared to the 10 mg/kg dose and control treatment): significant reduction of PSA expression; mRNA expression of PSA in tumors ([4]; 10 and 30 mg/kg oral daily, QPCR normalized to RPL13A, n=5 tumors): dose-dependent inhibition of the mRNA expression of PSA |
| COC[C@@H](O)COc1ccc(C(C)(C)c2cc(Cl)c(OC[C@H](O)CCl)c(Cl)c2)cc1 [Compound 5a, (S)-1-chloro-3-(2,6-dichloro-4-(2-(4-((R)-2-hydroxy-3-methoxypropoxy)phenyl)propan-2-yl)phenoxy)propan-2-ol] | 1.03 ± 0.39 | – |
| CC(C)(c1ccc(OC[C@H](O)Cn2ccnc2)cc1)c1cc(Cl)c(OC[C@H](O)CCl)c(Cl)c1 [Compound 9a, (S)-1-chloro-3-(2,6-dichloro-4-(2-(4-((R)-2-hydroxy-3-(1H-imidazol-1-yl)propoxy)phenyl)propan-2-yl)phenoxy)propan-2-ol] | 3.12 ± 0.68 | – |
| CC(C)(c1ccc(OC[C@H](O)CN2CCOCC2)cc1)c1cc(Cl)c(OC[C@H](O)CCl)c(Cl)c1 [Compound 11a, (S)-1-chloro-3-(2,6-dichloro-4-(2-(4-((R)-2-hydroxy-3-morpholinopropoxy)phenyl)propan-2-yl)phenoxy)propan-2-ol] | 1.05 ± 0.15 | – |
| CC(C)(c1ccc(OC[C@H](O)CN)cc1)c1cc(Cl)c(OC[C@H](O)CCl)c(Cl)c1 [Compound 12a, (R)-1-amino-3-(4-(2-(3,5-dichloro-4-((S)-3-chloro-2-hydroxypropoxy)phenyl)propan-2-yl)phenoxy)propan-2-ol] | 2.26 ± 0.24 | – |
| CC(C)(c1ccc(OC[C@H](O)CNS(C)(=O)=O)cc1)c1cc(Cl)c(OC[C@H](O)CCl)c(Cl)c1 [Compound 13a, N-((R)-3-(4-(2-(3,5-dichloro-4-((S)-3-chloro-2-hydroxypropoxy)phenyl)propan-2-yl)phenoxy)-2-hydroxypropyl)methanesulfonamide] | 1 ± 0.16 | – |
| CCS(=O)(=O)C[C@@H](O)COc1ccc(C(C)(C)c2cc(Cl)c(OC[C@H](O)CCl)c(Cl)c2)cc1 [Compound 14a, (S)-1-chloro-3-(2,6-dichloro-4-(2-(4-((S)-3-(ethylsulfonyl)-2-hydroxypropoxy)phenyl)propan-2-yl)phenoxy)propan-2-ol] | 0.95 ± 0.21 | – |
